From patent US20230069886A1, “AROMATIC SULPHONAMIDES DERIVATIVES THAT INHIBITS PDI A3, THEIR SYNTHESIS AND USE” (Uniwersytet Jagiellonski, priority 2020, published 2023) come the findings set out here.

In brackets after ≈: the same amount, converted by molar mass. Like-named read-outs stand apart in the source and are kept apart here.

For one assay, the system named is MDA-MB-231. Put plainly: MTT antiproliferative assay, 72 h, with or without estradiol, MDA-MB-231. It is filed as cell-based, human. To be noted: for IC50: Homo sapiens, MDA-MB-231, 72 hours exposition, MTT; for Sensitivity of MDA-MB-231 line after treatment with estradiol: estradiol (200 nM), Table 4. The procedure:
(§1) Anticancer activity of selected compounds of invention, PDI A3-inhibitors has been also tested in vitro in antiproliferative assay in normoxic and hypoxic conditions as well in estrogen-stimulated cancer cells. In the experiment, cells were seeded on 96-well plates (Sarstedt, Germany) in appropriate culture medium at a density of 10^5 cells/mL 24 h before adding the tested compounds. Cells were treated with each compound in four concentrations in the range 0.1-100 μg/mL. […] After 72 h of compound treatment at 37° C., 5% CO2 humid atmosphere and in wo different oxygen level conditions: 21%—normal and <1%—hypoxia. In some experiments the MDA-MB-231 and MCF-7 cells were seeded with or without 200 nM estradiol and after 24 h the tested compounds were added. A previously described sulforhodamine B antiproliferative assay was used with minor modifications (Skehan P et al., 1990). Briefly, cells were fixed with 50 μL/well of 50% (w/v) trichloroacetic acid (Avantor Performance Materials, Gliwice, Poland). After 1 h incubation, plates were washed several times with tap water and 50 μL of 0.4% (w/v) solution of sulforhodamine B (Sigma-Aldrich, Germany) in 1% (v/v) acetic acid (Avantor Performance Materials, Gliwice, Poland) was added to each well. After 30 min incubation at room temperature, unbound dye was washed out with 1% (v/v) acetic acid, whereas bound dye was solubilized with 10 mM unbuffered TRIS (Avantor Performance Materials, Gliwice, Poland) solution. The entire procedure was performed using a BioTek EL-406 washing station (BioTek Instruments, USA). After additional 30 min, absorbance was read using a Biotek Hybrid H4 reader (BioTek Instruments, USA) at 540 nm wavelength. MTT assay was used alternatively for HL-60 cell line and in the experiment in which estrogens are added (specified in the table legend). Absorbance was measured using a Biotek Hybrid H4 reader at 570 nm wavelength for MTT assay.
(§2) Compounds at each concentration were tested in triplicate in a single experiment and each experiment was repeated at least three times independently. Results are presented as mean IC50±SD.
Background: Tetrazolium assays rely on reduction of a dye to a coloured formazan, in cell work by metabolically active cells.

The subject of the next assay is HL-60. Put plainly: MTT antiproliferative assay, 72 h, HL-60. It is filed as cell-based, human. The note with it: Homo sapiens, HL-60, 72 hours exposition, read-out: IC50 [μg/ml] HL-60 normal. On the procedure:
as §1, §2

In the next assay the test system is human platelets. Kind of assay: Light transmission aggregometry of collagen-stimulated human platelet-rich plasma. It is filed as cell-based. The note with it: human PRP, FIG. 2, 3. On the procedure: Anti-platelet activity of compounds of invention was assessed using light transmission aggregometry assay of human platelet-rich plasma (PRP). Venous blood was obtained from male volunteers at the University Hospital Blood Bank Centre. Volunteer donors had not taken any medicines for the preceding two weeks. Blood was collected into vials containing sodium citrate (3.2%, 9:1 v/v) as an anti-coagulant agent. To obtain platelet rich plasma (PRP), blood was centrifuged at 260×g for 15 min. The platelet […] plasma fraction (used as a blank sample) was obtained by centrifugation of the remaining blood for 10 min at 2600×g. Aggregation of blood platelets was assessed in PRP with a dual channel Chronolog aggregometer (CHRONO-LOG) using a method previously described by Born^35. PRP (500 μl) was equilibrated for 2 min at 37° C. with a continuous stirring at 800 rpm and then stimulated with collagen to cause aggregation. At the beginning of each experiment, concentrations of collagen that induced sub-maximum aggregation response were determined. These concentrations were in the range of […], respectively. All the tested compounds were added 2 min prior to stimulation of platelets with collagen. Transmittance was read 6 min after stimulation of platelets with an agonist. […]

The subject of another assay is MCF-7. Kind of assay: MTT antiproliferative assay, 72 h, with or without estradiol, MCF-7. It is filed as cell-based, human. To be noted: for IC50: Homo sapiens, MCF7, 72 hours exposition, MTT; for Lower sensitivity after treatment with estradiol in MCF-7: estradiol (200 nM), Table 4. The procedure: as §1, §2
Another assay has as its system MCF-10A. Put plainly: Selectivity index MCF-10A versus MCF-7. The assay is classed as cell-based. The note with it: 72 hours exposition. On the procedure: as §1
Compounds at each concentration were tested in triplicate in a single experiment and each experiment was repeated at least three times independently. […]

The subject of assay [1] is MDA-MB-231 cell transmigration across IL-1β-stimulated hLMVECs. Kind of assay: Transendothelial migration of MDA-MB-231 cells across hLMVEC monolayer. It is filed as cell-based, human. The note with it: IL-1β 10 ng/mL (6 hours)-stimulated hLMVECs, 24 h co-culture, FIG. 6. The procedure:
To assess whether compounds of invention, PDI A3-inhibitors are also effective as inhibitors of cancer cell transmigration through endothelium the transmigration assay with MDA-MB-231/lung microvascular endothelium was used as described previously (Stojak et al., 2018). Cell migration was assayed in 24-well, 6.5-mm internal-diameter Transwell plates (8.0 μm pore size; BD Pharmingen). Human lung microvascular endothelial cells (hLMVECs) were seeded into 24-well plates (seeding density 5×10^4 cells/insert) on the upper side of the filter and left to grow to confluence. After confluent monolayer formation, hLMVECs were pre-treated with 10 ng/mL IL-1β for 6 h. Prior to use in transmigration assay, cancer cells were pre-incubated with various concentrations (3, 10, 30, 50, 100 μM) of tested inhibitors of PDIA3, C-3390, C-3399 for 30 min. Then, MDA-MB-231 cells (each 5×10^4 per well) were placed into upper chambers and tested PDI inhibitors at various concentrations (1, 10, 30, 50, 100 μM) were given. Lower chambers were filled with medium containing chemoattractant (20% FBS or 100 ng/mL SDF-1α). After 24 h of co-culture, hLMVEC monolayers and non-migrating cancer cells on the upper surface of the membrane were removed. […] The cell number was determined by measuring the fluorescence using plate reader. […]

A further assay deals with HT-29. Put plainly: MTT antiproliferative assay, 72 h, HT-29. The assay is classed as cell-based, human. The note with it: Homo sapiens, HT-29, 72 hours exposition, read-out: IC50 [μg/ml] HT-29 normal. On the procedure: as §1, with “A previously described sulforhodamine B antiproliferative assay was used with minor modifications (Skehan P et al., 1990).” left out, “MTT assay was used alternatively for HL-60 cell line and in the experiment in which estrogens are added (specified in the table legend).” left out
as §2

The test system of another assay is arterial thrombosis. Put plainly: In vivo models of arterial thrombosis. Also noted: species or system rat or mice. To be noted: FIG. 5. On the procedure:
To confirm antithrombotic activity of compounds of invention, inhibitors of PDIA3, pharmacological activity of selected compounds was tested in vivo in the rat or mice model of arterial thrombosis. Wistar rats were anaesthetized with pentobarbital (40 mg/kg, i.p.) and placed in a supine position on a heated (37° C.) operating table. Arterial thrombosis was induced by electrical stimulation of the right common carotid artery, as previously described (Kramkowski et al., 2012). Briefly, the anode, a stainless steel L-shaped wire, was inserted under the artery and connected to a constant current generator. The cathode was attached subcutaneously to the hind limb. The artery was stimulated (1 mA) for 10 min. Fifty-five minutes after the beginning of stimulation, the segment of the common carotid artery containing the formed thrombus was dissected and opened lengthwise, and the thrombus was completely removed and air-dried at room temperature for 24 h. Thrombus was then weighed in a blinded manner. Antithrombotic effects of compounds of invention in mice was analyzed using intravital fluorescence confocal microscopy as described previously (Hayashi T et al., 2008). […] Changes in fluorescence intensity were measured as described previously (Hayashi T et al., 2008, Kramkowski et al., 2002)

Where [2] appears, read: not pretreated with estradiol, read-out: IC50 [μg/ml] MDA-MB-231 normal.
The mark [3] stands for this setting: pretreated with 200 nM estradiol, read-out: IC50 [μg/ml] MDA-MB-231 +estradiol.
Where [4] appears, read: not pretreated with estradiol, read-out: IC50 [μg/ml] MCF-7 normal.
The mark [5] stands for this setting: pretreated with 200 nM estradiol, read-out: IC50 [μg/ml] MCF-7 +estradiol.

`COC(=O)C1CN1S(=O)(=O)c1ccc2c(N(C)C)cccc2c1` (stereo not shown) [Compound C-3399, Methyl 1-[[5-(dimethylamino)-2-naphthyl]sulfonyl]aziridine-2-carboxylate]: the IC50 in the assay with MDA-MB-231 (setting [2]) worked out at 2.9 ± 0.3 µg/mL (≈ 8.67 µM); in the assay with MDA-MB-231 (setting [3]), 6.4 ± 1.9 µg/mL (≈ 19.1 µM); in the assay on HL-60, 2.4 ± 0.3 µg/mL (≈ 7.18 µM); in the assay on MCF-7 (setting [4]) it was 3.7 ± 0.3 µg/mL (≈ 11.1 µM); with MCF-7 (setting [5]), 4.3 ± 0.3 µg/mL (≈ 12.9 µM); in the assay on HT-29, 4.3 ± 0.2 µg/mL (≈ 12.9 µM). In addition, the “Sensitivity of MDA-MB-231 line after treatment with estradiol” value with MDA-MB-231 is on record as “slightly lower sensitivity”. Further, the “Inhibition of platelet aggregation” value in the assay on human platelets was “lowest EC50”. Further, in the assay with MCF-7, the “Lower sensitivity after treatment with estradiol in MCF-7” value is “not observed”. Further, in the assay with MCF-10A, the “Selectivity index (SI): IC50 of MCF-10A/IC50 of MCF-7” value (“Selectivity index (SI): IC50” below) was determined as 1.6. For the same molecule, the “Inhibition of MDA-MB-231 cell transmigration” value in assay [1] was “inhibited MDA-MB-231 cell transmigration”.

For the molecule `COC(=O)C1CN1S(=O)(=O)c1ccc(N(C)C)cc1` (stereo not shown) [Compound C-3343, Methyl 1-[4-(dimethylamino)phenyl]sulfonylaziridine-2-carboxylate], the “Anti-thrombotic effects in vivo” value with arterial thrombosis is recorded as “anti-thrombotic effects”.

`CN(C)C(=O)C1CN1S(=O)(=O)c1ccc2ccccc2c1` (stereo not shown) [Compound C-3373, N,N-Dimethyl-1-(2-naphthylsulfonyl)aziridine-2-carboxamide]: the IC50 came to 3.2 ± 0.1 µg/mL (≈ 10.5 µM) in the assay on MDA-MB-231 (setting [2]); 3.2 ± 0.3 µg/mL (≈ 10.5 µM) in the assay on MDA-MB-231 (setting [3]); 3.1 ± 0.1 µg/mL (≈ 10.2 µM) with HL-60; 3.3 ± 0.1 µg/mL (≈ 10.8 µM) with MCF-7 (setting [4]); 2.6 ± 0.5 µg/mL (≈ 8.54 µM) in the assay with MCF-7 (setting [5]); 33.4 ± 1.1 µg/mL (≈ 110 µM) in the assay on HT-29. Also, the “Selectivity index (SI): IC50” value in the assay on MCF-10A worked out at 1.20.

In the case of `COC(=O)C1CN1S(=O)(=O)c1cccc2cc(N(C)C)ccc12` (stereo not shown) [Compound C-3375, Methyl 1-[[6-(dimethylamino)-1-naphthyl]sulfonyl]aziridine-2-carboxylate], the IC50 in the assay on MDA-MB-231 (setting [2]) came to 3.8 ± 0.1 µg/mL (≈ 11.4 µM); in the assay on MDA-MB-231 (setting [3]), 7 ± 1.1 µg/mL (≈ 20.9 µM); with HL-60 it was 3.3 ± 0.2 µg/mL (≈ 9.87 µM); in the assay on MCF-7 (setting [4]) it was 3.5 ± 0.4 µg/mL (≈ 10.5 µM); in the assay on MCF-7 (setting [5]), 3.4 ± 0.3 µg/mL (≈ 10.2 µM); in the assay with HT-29 it was 27.8 ± 7.5 µg/mL (≈ 83.1 µM). For the same molecule, the “Sensitivity of MDA-MB-231 line after treatment with estradiol” value with MDA-MB-231 was “slightly lower sensitivity”. Also, the “Lower sensitivity after treatment with estradiol in MCF-7” value with MCF-7 is on record as “not observed”. For the same molecule, the “Selectivity index (SI): IC50” value with MCF-10A worked out at 6.90.
